This test addresses human PAD4 (hPAD4) (Homo sapiens, UniProt Q9UM07). Kind of test: RFMS human PAD4 functional assay (rapid-fire mass spectrum). Type of test: biochemical. As to conditions: 5 nM hPAD4 enzyme, 250 μM BAEE, 50 μM Calcium; 30 min preincubation, 90 min reaction at 37° C. In outline: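 PAD4 (10 nM) preincubated 30 min with compound (top final 50 μM), then BAEE substrate added in pH 7.5 HEPES buffer with DTT, 50 μM calcium, TPEN; 90 min at 37° C. After TCA quench, citrulline derivatized with phenyl glyoxal (4 mM final, 30 min, 37° C) and quantified by RapidFire MS against internal standard.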

Chain of human PAD4 (hPAD4) (Q9UM07 whole entry): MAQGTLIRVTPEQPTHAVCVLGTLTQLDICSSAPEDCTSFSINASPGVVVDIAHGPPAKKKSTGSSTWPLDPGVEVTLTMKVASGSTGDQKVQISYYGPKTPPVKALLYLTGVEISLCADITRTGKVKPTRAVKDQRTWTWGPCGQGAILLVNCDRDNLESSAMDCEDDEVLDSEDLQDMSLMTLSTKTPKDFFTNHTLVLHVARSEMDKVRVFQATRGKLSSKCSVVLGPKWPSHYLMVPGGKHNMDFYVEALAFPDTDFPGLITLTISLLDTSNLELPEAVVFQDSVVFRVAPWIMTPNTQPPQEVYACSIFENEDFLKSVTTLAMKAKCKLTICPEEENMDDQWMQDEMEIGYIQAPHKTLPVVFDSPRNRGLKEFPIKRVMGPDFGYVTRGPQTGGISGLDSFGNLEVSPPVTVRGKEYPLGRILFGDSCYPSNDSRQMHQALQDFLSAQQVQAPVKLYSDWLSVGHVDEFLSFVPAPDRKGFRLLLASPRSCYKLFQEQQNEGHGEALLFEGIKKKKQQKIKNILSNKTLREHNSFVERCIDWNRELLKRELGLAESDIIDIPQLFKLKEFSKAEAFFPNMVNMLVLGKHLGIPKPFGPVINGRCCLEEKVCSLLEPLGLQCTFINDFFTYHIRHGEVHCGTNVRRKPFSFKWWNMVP

Broadly, the IC50 is the point on the concentration scale where inhibition reaches its midpoint. Regarding `COc1cc(C(=O)N2C[C@H]3CC[C@@H]2[C@@H]3N)cc2nc(-c3cc4cccnc4n3CC3CC3)n(CC3CN(C(=O)C4CC4)C3)c12` [Example 123, (1R,4R,7R)-2-{1-[(1-cyclopropanecarbonylazetidin-3-yl)methyl]-2-[1-(cyclopropylmethyl)-1H-pyrrolo[2,3-b]pyridin-2-yl]-7-methoxy-1H-1,3-benzodiazole-5-carbonyl}-2-azabicyclo[2.2.1]heptan-7-amine], the IC50 was found to be 0.1 µM.
The same measure for `CCn1cc(Cn2c(-c3cc4cccnc4n3CC3CC3)nc3cc(C(=O)N4C[C@H](N)C[C@@H](F)C4)cc(OC)c32)cn1` [Example 501, (3R,5R)-1-{2-[1-(cyclopropylmethyl)-1H-pyrrolo[2,3-b]pyridin-2-yl]-1-[(1-ethyl-1H-pyrazol-4-yl)methyl]-7-methoxy-1H-1,3-benzodiazole-5-carbonyl}-5-fluoropiperidin-3-amine]: 0.136 µM; for `COc1cc(C(=O)N2C[C@H]3CC[C@@H]2[C@@H]3N)cc2nc(-c3cc4ccccc4n3CC3CC3)n(CC3CN(C(=O)c4ccc(O)cc4F)C3)c12` [Example 147, 4-[3-({5-[(1R,4R,7R)-7-amino-2-azabicyclo[2.2.1]heptane-2-carbonyl]-2-[1-(cyclopropylmethyl)-1H-indol-2-yl]-7-methoxy-1H-1,3-benzodiazol-1-yl}methyl)azetidine-1-carbonyl]-3-fluorophenol]: 0.019 µM.
In the case of `COc1cc(C(=O)N2C[C@H]3CC[C@@H]2[C@@H]3N)cc2nc(-c3cc4ccccc4n3CC3CC3)n(Cc3cnn(Cc4ccccc4)c3)c12` [Example 259, (1R,4R,7R)-2-{1-[(1-benzyl-1H-pyrazol-4-yl)methyl]-2-[1-(cyclopropylmethyl)-1H-indol-2-yl]-7-methoxy-1H-1,3-benzodiazole-5-carbonyl}-2-azabicyclo[2.2.1]heptan-7-amine], the IC50 amounted to 0.044 µM.
The same measure for `COc1ccc2cc(-c3nc4cc(C(=O)N5C[C@H]6CC[C@@H]5[C@@H]6N)cc(OC)c4n3CC3CN(c4ncncc4C#N)C3)n(CC3CC3)c2n1` [Example 24, 4-[3-({5-[(1R,4R,7R)-7-amino-2-azabicyclo[2.2.1]heptane-2-carbonyl]-2-[1-(cyclopropylmethyl)-6-methoxy-1H-pyrrolo[2,3-b]pyridin-2-yl]-7-methoxy-1H-1,3-benzodiazol-1-yl}methyl)azetidin-1-yl]pyrimidine-5-carbonitrile]: 0.068 µM; for `COc1cc(C(=O)N2CC3CCC2[C@@H]3N)cc2nc(-c3cc4ccccc4n3CC3CC3)n(Cc3cnn(-c4cccnc4O)c3)c12` (stereo partly drawn) [Example 384, 3-[4-({5-[(7R)-7-amino-2-azabicyclo[2.2.1]heptane-2-carbonyl]-2-[1-(cyclopropylmethyl)-1H-indol-2-yl]-7-methoxy-1H-1,3-benzodiazol-1-yl}methyl)-1H-pyrazol-1-yl]pyridin-2-ol]: 0.041 µM; for `COc1cc(C(=O)N2C[C@H]3CC[C@@H]2[C@@H]3N)cc2nc(-c3cc4ccccc4n3CC3CC3)n(Cc3ccon3)c12` [Example 268, (1R,4R,7R)-2-{2-[1-(cyclopropylmethyl)-1H-indol-2-yl]-7-methoxy-1-[(1,2-oxazol-3-yl)methyl]-1H-1,3-benzodiazole-5-carbonyl}-2-azabicyclo[2.2.1]heptan-7-amine]: 0.114 µM.
With `COc1cc(C(=O)N2C[C@H](N)C[C@@H](F)C2)cc2nc(-c3cc4ccccc4n3CC3CC3)n(Cc3ccccc3)c12` [Example 282, (3R,5R)-1-{1-benzyl-2-[1-(cyclopropylmethyl)-1H-indol-2-yl]-7-methoxy-1H-1,3-benzodiazole-5-carbonyl}-5-fluoropiperidin-3-amine], the concentration for half-maximal inhibition (IC50) worked out at 0.78 µM.
For `COc1cc(C(=O)N2C[C@H]3CC[C@@H]2[C@@H]3N)cc2nc(-c3cc4ccccc4n3CC3CC3)n(Cc3cnn(-c4ccccc4)c3)c12` [Example 253, (1R,4R,7R)-2-{2-[1-(cyclopropylmethyl)-1H-indol-2-yl]-7-methoxy-1-[(1-phenyl-1H-pyrazol-4-yl)methyl]-1H-1,3-benzodiazole-5-carbonyl}-2-azabicyclo[2.2.1]heptan-7-amine], the IC50 came to 0.027 µM.
The same measure for `COc1cc(C(=O)N2CC3CCC2[C@@H]3N)cc2nc(-c3cc4cccnc4n3CC3CC3)n(CCNC(C)=O)c12` (stereo partly drawn) [Example 289, N-(2-{5-[(1R,4R,7R)-7-amino-2-azabicyclo[2.2.1]heptane-2-carhonyl]-2-[1-(cyclopropylmethyl)-1H-pyrrolo[2,3-b]pyridin-2-yl]-7-methoxy-1H-1,3-benzodiazol-1-yl}ethyl)acetamide]: 1.29 µM; for `COc1cc(C(=O)N2C[C@H](N)C[C@@H](F)C2)cc2nc(-c3cc4ccccc4n3CC3CC3)n(CC3CN(c4ccnc(C#N)n4)C3)c12` [Example 4, 4-(3-((5-((3R,5R)-3-amino-5-fluoropiperidine-1-carbonyl)-2-(1-(cyclopropylmethyl)-1H-indol-2-yl)-7-methoxy-1H-benzo[d]imidazol-1-yl)methyl)azetidin-1-yl)pyrimidine-2-carbonitrile]: 0.035 µM.
The figure for `COc1cc(C(=O)N2CC(Cn3c(-c4cc5cccnc5n4CC4CC4)nc4cc(C(=O)N5CC6CCC5[C@@H]6N)cc(OC)c43)C2)ccn1` (stereo partly drawn) [Example 441, (7R)-2-{2-[1-(cyclopropylmethyl)-1H-pyrrolo[2,3-b]pyridin-2-yl]-7-methoxy-1-{[1-(2-methoxypyridine-4-carbonyl)azetidin-3-yl]methyl}-1H-1,3-benzodiazole-5-carbonyl}-2-azabicyclo[2.2.1]heptan-7-amine] is 0.038 µM.
The same measure for `COc1cc(C(=O)N2CCC[C@@H](N)C2)cc2nc(-c3cc4cccnc4n3CC3CC3)n(C3CNC3)c12` [Example 310, (3R)-1-[1-(azetidin-3-yl)-2-[1-(cyclopropylmethvl)-1H-pyrrolo[2,3-b]pyridin-2-yl]-7-methoxy-1H-1,3-benzodiazole-5-carbonyl]piperidin-3-amine]: 1.9 µM; for `COc1cc(C(=O)N2CC3CCC2[C@@H]3N)cc2nc(-c3cc4ccccc4n3CC3CC3)n(CC3CN(C(=O)c4ccnc(C)c4)C3)c12` (stereo partly drawn) [Example 421, (7R)-2-{2-[1-(cyclopropylmethyl)-1H-indol-2-yl]-7-methoxy-1-{[1-(2-methylpyridine-4-carbonyl)azetidin-3-yl]methyl}-1H-1,3-benzodiazole-5-carbonyl}-2-azabicyclo[2.2.1]heptan-7-amine]: 0.021 µM; for `COc1cc(C(=O)N2C[C@H]3CC[C@@H]2[C@@H]3N)cc2nc(-c3cc4cccnc4n3CC3CC3)n(CC3CN(c4ncc(Br)cn4)C3)c12` [Example 32, (1R,4R,7R)-2-(1-{[1-(5-bromopyrimidin-2-yl)azetidin-3-yl]methyl}-2-[1-(cyclopropylmethyl)-1H-pyrrolo[2,3-b]pyridin-2-yl]-7-methoxy-1H-1,3-benzodiazole-5-carbonyl)-2-azabicyclo[2.2.1]heptan-7-amine]: 0.086 µM.
Take `COc1cc(C(=O)N2C[C@H]3CC[C@@H]2[C@@H]3N)cc2nc(-c3cc4ccccc4n3CC3CC3)n(Cc3cnn(C)c3)c12` [Example 242, (1R,4R,7R)-2-{2-[1-(cyclopropylmethyl)-1H-indol-2-yl]-7-methoxy-1-[(1-methyl-1H-pyrazol-4-yl)methyl]-1H-1,3-benzodiazole-5-carbonyl}-2-azabicyclo[2.2.1]heptan-7-amine]: the IC50 was 0.041 µM.
The same measure for `COc1cc(C(=O)N2C[C@H]3CC[C@@H]2[C@@H]3N)cc2nc(-c3cc4cccnc4n3C)n(CC3CN(c4ccnc(C#N)n4)C3)c12` [Example 26, 4-[3-({5-[(1R,4R,7R)-7-amino-2-azabicyclo[2.2.1]heptane-2-carbonyl]-7-methoxy-2-{1-methyl-1H-pyrrolo[2,3-b]pyridin-2-yl}-1H-1,3-benzodiazol-1-yl}methyl)azetidin-1-yl]pyrimidine-2-carbonitrile]: 0.072 µM; for `COc1cc(C(=O)N2C[C@H]3CC[C@@H]2[C@@H]3N)cc2nc(-c3cc4cccnc4n3CC3CC3)n(CC3CN(c4cnccn4)C3)c12` [Example 74, (1R,4R,7R)-2-{2-[1-(cyclopropylmethyl)-1H-pyrrolo[2,3-b]pyridin-2-yl]-7-methoxy-1-{[1-(pyrazin-2-yl)azetidin-3-yl]methyl}-1H-1,3-benzodiazole-5-carbonyl}-2-azabicyclo[2.2.1]heptan-7-amine]: 0.21 µM.
The figure for `N[C@@H]1[C@@H]2CC[C@H]1N(C(=O)c1cc(Cl)c3c(c1)nc(-c1cc4cccnc4n1CC1CC1)n3CC1CN(C(=O)c3ccccc3)C1)C2` [Example 89, (3-((5-((1R,4R,7R)-7-amino-2-azabicyclo[2.2.1]heptane-2-carbonyl)-7-chloro-2-(1-(cyclopropylmethyl)-1H-pyrrolo[2,3-b]pyridin-2-yl)-1H-benzo[d]imidazol-1-yl)methyl)azetidin-1-yl)(phenyl)methanone] is 0.041 µM; for `COc1cc(C(=O)N2C[C@H](N)C[C@@H](F)C2)cc2nc(-c3cc4cccnc4n3CC3CC3)n(Cc3cn(C)nc3C)c12` [Example 507, (3R,5R)-1-{2-[1-(cyclopropylmethyl)-1H-pyrrolo[2,3-b]pyridin-2-yl]-1-[(1,3-dimethyl-1H-pyrazol-4-yl)methyl]-7-methoxy-1H-1,3-benzodiazole-5-carbonyl}-5-fluoropiperidin-3-amine] it is 0.256 µM; for `COc1cc(C(=O)N2C[C@H](N)C[C@@H](F)C2)cc2nc(-c3cc4cccnc4n3CC3CC3)n(Cc3cnn(-c4ncccn4)c3)c12` [Example 401, (3R,5R)-1-{2-[1-(cyclopropylmethyl)-1H-pyrrolo[2,3-b]pyridin-2-yl]-7-methoxy-1-{[1-(pyrimidin-2-yl)-1H-pyrazol-4-yl]methyl}-1H-1,3-benzodiazole-5-carbonyl}-5-fluoropiperidin-3-amine] it is 0.059 µM.
